No end group written: not given here.
What was measured:
[1] = system: Staphylococcus aureus IFO12732; type: cell-based; conditions: IFO12732, 2 h, pH 7.5
Protocol: (§1) Microbicidal assay was performed as previously described. A low ionic strength condition was used to detect bactericidal activity with higher sensitivity. Briefly, each microbial strain in the mid-exponential phase was suspended in 10 mM Tris/HCl, pH 7.5. The microbial suspension was mixed with peptides. After 2 h incubation, the suspension was diluted 1,000 times and inoculated on to plates of IFO702 medium (1% polypeptone, 0.2% yeast extract, 0.1% MgSO4 7H2O, 2% agar). The numbers of colonies were counted, and a plot of peptide concentration vs colony number was created.

[2] = system: Pseudomonas aeruginosa IFO3899; type: cell-based; conditions: IFO3899, 2 h, pH 7.5
Protocol: as §1

Escherichia coli JM109 = type: cell-based; conditions: JM109, 2 h, pH 7.5
Protocol: as §1

[3] = system: Bacillus subtilis IFO3134; type: cell-based; conditions: IFO3134, 2 h, pH 7.5
Protocol: as §1

[4] = system: Serratia marcescens IFO3736; type: cell-based; conditions: IFO3736, 2 h, pH 7.5
Protocol: as §1

[5] = system: Salmonella typhimurium IFO13245; type: cell-based; conditions: murium IFO13245, 2 h, pH 7.5
Protocol: as §1

[6] = system: Saccharomyces cerevisiae MAFF113011; type: cell-based; conditions: MAFF113011, 2 h, pH 7.5
Protocol: as §1

[7] = system: Micrococcus luteus IFO12708; type: cell-based; conditions: IFO12708, 2 h, pH 7.5
Protocol: as §1

[8] = cited from earlier work
Human erythrocytes = test: Hemolytic assay; type: cell-based; conditions: peptide 300 μg/mL, 10 mM Tris-HCl pH 7.5 with 308 mM sucrose, 0.5 h, A540, pure water = 100% lysis
Protocol: Hemolytic assay was performed as previously described. Human erythrocytes were used. Hemolysis was estimated as the leakage of haemoglobin. The erythrocytes were washed and resuspended in 10 mM Tris-HCl, pH 7.5, containing 308 mM sucrose. The erythrocyte suspension was diluted by 30%. The diluted suspension was mixed with the equal volume of peptide solution dissolved in the same buffer. After 0.5 h of incubation, the test suspension was centrifuged to remove the intact erythrocytes. The supernatant was diluted, and A540 was measured. The hemolysis caused by pure water was defined as 100% lysis.

[9] = Liposome disruption assay (calcein release), PG/CL liposomes; conditions: PG:CL = 3:1 (molar), 10 mM Tris-HCl pH 7.5 with 350 mM sucrose, room temperature, three independent trials
Protocol: (§2) Membrane-disrupting activity was estimated by liposome disruption assay. Bovine heart phosphatidylglycerol (PG), egg cardiolipin (CL), and egg phosphatidylcholine (PC) were purchased from Avanti Polar Lipids, Inc., Alabama, USA. A lipid film was prepared by rotary evaporation of lipid solution (1 mg lipid in 1 ml chloroform). The lipid film was hydrated with 1 ml of 10 mM Tris-HCl buffer (pH 7.5) containing 75 mM calcein. Lipid dispersions were sonicated and subjected to five freeze-thaw cycles. Non-trapped calcein was removed by gel filtration on a Sephacryl S-300 spin column (GE Healthcare Bio-Science Corp., Piscataway, NJ, USA) equilibrated with 10 mM Tris-HCl (pH 7.5) containing 175 mM NaCl and 1 mM EDTA. These calcein-entrapped liposomes were diluted at a ratio of 1:1000 in 10 mM Tris-HCl (pH 7.5) containing 350 mM sucrose. Calcein release after membrane disruption was evaluated by measuring fluorescence intensity at 515 nm with excitation at 492 nm on a RF-5300PC spectrofluorometer at room temperature.
Figure 4 Membrane-disruption against acidic-liposomes. Calcein release from vesicles consisting of PG:CL = 3:1 was measured. Each point was obtained from three independent trials using a single preparation of liposomes and peptides, and represents the mean ± standard error of the mean.

[10] = Liposome disruption assay (calcein release), PC liposomes
Protocol: as §2

[11] = Precipitation in the presence of PG/CL liposomes (CD sample conditions); type: physicochemical; conditions: peptide 100 μg/ml, PG/CL liposome 500 μg/ml, 10 mM Tris-HCl pH 7.5, 20°C
Protocol: CD spectra were recorded on a J-720 spectropolarimeter (JASCO, Tokyo, Japan) in the far-ultraviolet (UV) range from 190 to 260 nm using a 0.1 cm thermostatted cell at 25°C. Peptides were dissolved in 10 mM Tris-HCl (pH 7.5) containing tri-fluoroethanol (TFE) at 0-100%. For measurement under the presence of liposomes, peptides were dissolved at 100 μg/ml containing 500 μg/ml liposomes at 20°C.
Furthermore, membrane-disruptive activities against liposomes were also estimated. A liposome dye-leakage assay was used. […] In contrast, NP2P and NP3P damaged the PG/CL liposome membrane at ≥0.3 μg/ml (Figure 4). The concentration was equal or lower than MBCs against Gram-positive bacteria, which were measured under identical ionic conditions. […] Since CD spectra could not be measured, the conformation of NP3P in the presence of PG/CL membrane remains unclear.

Substance	MBC [1]	MBC [2]	MBC (Escherichia coli JM109)	MBC [3]	MBC [4]	MBC [5]	MBC [6]	MBC [7]	enhancer activity for membrane-disruptive antimicrobial peptides [8]	Hemolytic activity (%) (Human erythrocytes)	concentration causing dye-leakage (membrane damage) of PG/CL liposomes [9]	concentration causing dye-leakage (membrane disruption) of PC liposomes ([10]; PC only liposomes, 10 mM Tris-HCl pH 7.5 with 350 mM sucrose, room temperature)	precipitation in the presence of PG/CL liposome [11]	effect on PC liposome membrane (in words) ([10]; PC liposomes, data not shown)
HRRSVAHQEEASLHVKTDELPSPDTVREQL-OH [P4P]	>300 (>300) μg/ml	>300 (>300) μg/ml	>300 (>300) μg/ml	>300 (>300) μg/ml	>300 (>300) μg/ml	>300 (>300) μg/ml	>300 (>300) μg/ml	>300 (>300) μg/ml						
HRRSVAHQQQASLHVKTNQLPSPNTVRQQL-OH [NP4P]	>300 (>300) μg/ml	>300 (>300) μg/ml	>300 (>300) μg/ml	>300 (>300) μg/ml	>300 (>300) μg/ml	>300 (>300) μg/ml	>300 (>300) μg/ml	>300 (>300) μg/ml	enhancer activity for membrane-disruptive antimicrobial peptides was detected					
RRRFVAEQDAIHSRVSREVPTLSDSV-OH [P1P]	> 300 µg/mL	> 300 µg/mL	> 300 µg/mL	> 300 µg/mL	>300 (>300) μg/ml	> 300 µg/mL	> 300 µg/mL	> 300 µg/mL		0.00 ± 0.00%				
RRRFVAQQNAIHSRVSRQVPTLSNSV-OH [NP1P]	10 µg/mL	20 µg/mL	10 µg/mL	30 µg/mL	>300 (>300) μg/ml	30 µg/mL	200 µg/mL	30 µg/mL		1.32 ± 0.02%	> 200 µg/mL	> 200 µg/mL		
RRRSVGEEDAIPSHIEVNKFFLRKPAKEHI-OH [P3P]	> 300 µg/mL	70 µg/mL	> 300 µg/mL	> 300 µg/mL	>300 (>300) μg/ml	> 300 µg/mL	> 300 µg/mL	200 µg/mL		1.69 ± 0.05%			not affected	
RRRSVGQQNAIPSHIQVNKFFLRKPAKQHI-OH [NP3P]	5 µg/mL	20 µg/mL	7 µg/mL	20 µg/mL	>300 (>300) μg/ml	20 µg/mL	7 µg/mL	10 µg/mL		2.61 ± 0.02%	≥ 0.3 µg/mL		precipitated	did not affect PC liposome membrane

From article PMC3070621, “Generation of novel cationic antimicrobial peptides from natural non-antimicrobial sequences by acid-amide substitution” (Annals of Clinical Microbiology and Antimicrobials, 2011)
